From patent US20120100990A1, “4 -AMINOPICOLINATES AND THEIR USE AS HERBICIDES” (SYNGENTA CROP PROTECTION LLC, priority 2009, published 2012)

Experiments:
Format in all cases: in vivo
[1] = tested on: Alopecurus myosuroides (ALOMY); assay: Pre-emergence biological efficacy, glasshouse pot test; conditions: 312 h, 1,000 g/ha, evaluated after 13 days, 100=total damage, 0=no damage, read-out: Percentage damage caused to weed species, pre-emergence, ALOMY
Experimental: (§1) Seeds of Alopecurus myosuroides (ALOMY), Setaria faberi (SETFA), Echinochloa crus-galli (ECHCG), Solanum nigrum (SOLNI), Amaranthus retroflexus (AMARE) and Ipomea hederaceae (IPOHE) were sown in standard soil in pots. After cultivation for one day under controlled conditions in a glasshouse (at 24/16° C., day/night; 14 hours light; 65% humidity), the plants were sprayed with an aqueous spray solution derived from the formulation of the technical active ingredient in acetone/water (50:50) solution containing 0.5% Tween 20 (polyoxyethylene sorbitan monolaurate, CAS RN 9005-64-5) to give a final dose of 1000 or 250 g/ha of test compound. The test plants were then grown under controlled conditions in the glasshouse (at 24/16° C., day/night; 14 hours light; 65% humidity) and watered twice daily. After 13 days the test was evaluated (100=total damage to plant; 0=no damage to plant).

[2] = tested on: Amaranthus retroflexus (AMARE); assay: as above; conditions: 312 h, 1,000 g/ha, evaluated after 13 days, 100=total damage, 0=no damage, read-out: Percentage damage caused to weed species, pre-emergence, AMARE
Experimental: as §1

[3] = tested on: Echinochloa crus-galli (ECHCG); assay: as above; conditions: 312 h, 1,000 g/ha, evaluated after 13 days, 100=total damage, 0=no damage, read-out: Percentage damage caused to weed species, pre-emergence, ECHCG
Experimental: as §1

[4] = tested on: Ipomea hederaceae (IPOHE); assay: as above; conditions: Ipomoea hederacea, 312 h, 1,000 g/ha, evaluated after 13 days, 100=total damage, 0=no damage, read-out: Percentage damage caused to weed species, pre-emergence, IPOHE
Experimental: as §1

[5] = tested on: Setaria faberi (SETFA); assay: as above; conditions: 312 h, 1,000 g/ha, evaluated after 13 days, 100=total damage, 0=no damage, read-out: Percentage damage caused to weed species, pre-emergence, SETFA
Experimental: as §1

[6] = tested on: Solanum nigrum (SOLNI); assay: as above; conditions: 312 h, 1,000 g/ha, evaluated after 13 days, 100=total damage, 0=no damage, read-out: Percentage damage caused to weed species, pre-emergence, SOLNI
Experimental: as §1

[7] = tested on: Alopecurus myosuroides (ALOMY); assay: Post-emergence biological efficacy, glasshouse pot test; conditions: 312 h, 1,000 g/ha, evaluated after 13 days, 100=total damage, 0=no damage, read-out: Percentage damage caused to weed species, post-emergence, ALOMY
Experimental: as §1, with “for 8 days” for “for one day”, “grown on” for “grown”, “in a” for “in the”

[8] = tested on: Amaranthus retroflexus (AMARE); assay: as above; conditions: 312 h, 1,000 g/ha, evaluated after 13 days, 100=total damage, 0=no damage, read-out: Percentage damage caused to weed species, post-emergence, AMARE
Experimental: as §1, with “for 8 days” for “for one day”, “grown on” for “grown”, “in a” for “in the”

[9] = tested on: Echinochloa crus-galli (ECHCG); assay: as above; conditions: 312 h, 1,000 g/ha, evaluated after 13 days, 100=total damage, 0=no damage, read-out: Percentage damage caused to weed species, post-emergence, ECHCG
Experimental: as §1, with “for 8 days” for “for one day”, “grown on” for “grown”, “in a” for “in the”

[10] = tested on: Ipomea hederaceae (IPOHE); assay: as above; conditions: Ipomoea hederacea, 312 h, 1,000 g/ha, evaluated after 13 days, 100=total damage, 0=no damage, read-out: Percentage damage caused to weed species, post-emergence, IPOHE
Experimental: as §1, with “for 8 days” for “for one day”, “grown on” for “grown”, “in a” for “in the”

[11] = tested on: Setaria faberi (SETFA); assay: as above; conditions: 312 h, 1,000 g/ha, evaluated after 13 days, 100=total damage, 0=no damage, read-out: Percentage damage caused to weed species, post-emergence, SETFA
Experimental: as §1, with “for 8 days” for “for one day”, “grown on” for “grown”, “in a” for “in the”

[12] = tested on: Solanum nigrum (SOLNI); assay: as above; conditions: 312 h, 1,000 g/ha, evaluated after 13 days, 100=total damage, 0=no damage, read-out: Percentage damage caused to weed species, post-emergence, SOLNI
Experimental: as §1, with “for 8 days” for “for one day”, “grown on” for “grown”, “in a” for “in the”

SMILES | pest or weed control at 1000 g/ha [1] [%] | pest or weed control at 1000 g/ha [2] [%] | pest or weed control at 1000 g/ha [3] [%] | pest or weed control at 1000 g/ha [4] [%] | pest or weed control at 1000 g/ha [5] [%] | pest or weed control at 1000 g/ha [6] [%] | pest or weed control at 1000 g/ha [7] [%] | pest or weed control at 1000 g/ha [8] [%] | pest or weed control at 1000 g/ha [9] [%] | pest or weed control at 1000 g/ha [10] [%] | pest or weed control at 1000 g/ha [11] [%] | pest or weed control at 1000 g/ha [12] [%]
C=Cc1c(NCc2ccccc2C)cc(Cl)nc1C(=O)OC [Compound 9-12, 6-Chloro-3-ethenyl-4-[(2-methylphenyl-methyl)-amino]-pyridine-2-carboxylic acid methyl ester] | 10 | 90 | 10 | 60 | 0 | 100 | 40 | 100 | 50 | 40 | 50 | 80
C=Cc1c(NCc2ccc(N(C)C)cc2)cc(Cl)nc1C(=O)OC [Compound 14-12, 6-Chloro-4-[(4-dimethylamino-phenylmethyl)-amino]-3-ethenyl-pyridine-2-carboxylic acid methyl ester] | 80 | 100 | 30 | 100 | 80 | 100 | 60 | 100 | 50 | 50 | 80 | 90
COC(=O)c1nc(Cl)cc(NCc2ccccc2[N+](=O)[O-])c1Cl [Compound 15-2, 3,6-Dichloro-4-[(2-nitrophenylmethyl)-amino]-pyridine-2-carboxylic acid methyl ester] | 90 | 100 | 80 | 100 | 90 | 100 | 70 | 100 | 70 | 90 | 90 | 100
C=Cc1c(NCc2ccccc2[N+](=O)[O-])cc(Cl)nc1C(=O)OC [Compound 15-12, 6-Chloro-3-ethenyl-4-[(2-nitrophenylmeth-yl)-amino]-pyridine-2-carboxylic acid methyl ester] | 70 | 100 | 90 | 100 | 80 | 100 | 80 | 100 | 70 | 60 | 100 | 90
COC(=O)c1nc(Cl)cc(NCc2ccccc2[N+](=O)[O-])c1Br [Compound 15-17, 3-Bromo-6-chloro-4-[(2-nitrophenylmethyl)-amino]-pyridine-2-carboxylic acid methyl ester] | 40 | 100 | 20 | 90 | 60 | 90 | 50 | 80 | 30 | 80 | 80 | 90
C=Cc1c(C(=O)OC)nc(Cl)c(F)c1NCc1ccccc1[N+](=O)[O-] [Compound 15-27, 6-Chloro-3-ethenyl-5-fluoro-4-[(2-nitrophenylmeth-yl)amino]-pyridine-2-carboxylic acid methyl ester] | 90 | 100 | 90 | 90 | 90 | 100 | 70 | 100 | 70 | 90 | 90 | 100
COC(=O)c1nc(Cl)c(F)c(NCc2ccccc2[N+](=O)[O-])c1Br [Compound 15-29, 3-bromo-6-chloro-5-fluoro-4-[(2-nitrophenyl-methyl)-amino]-pyridine-2-carboxylic acid methyl ester] | 90 | 90 | 70 | 100 | 40 | 90 | 50 | 100 | 50 | 70 | 80 | 100
COC(=O)c1nc(Cl)c(F)c(NCc2ccccc2[N+](=O)[O-])c1C [Compound 15-31, 6-Chloro-5-fluoro-3-methyl-4-[(2-nitrophenyl-methyl)-amino]-pyridine-2-carboxylic acid methyl ester] | 20 | 100 | 20 | 70 | 20 | 90 | 20 | 100 | 50 | 70 | 80 | 100
C=Cc1c(C(=O)OC)nc(Cl)c(Cl)c1NCc1ccccc1[N+](=O)[O-] [Compound 15-39, 5,6-Dichloro-3-ethenyl-4-[(2-nitrophenylmeth-yl)-amino]-pyridine-2-carboxylic acid methyl ester] | 30 | 100 | 80 | 90 | 40 | 100 | 60 | 100 | 60 | 90 | 80 | 100
COC(=O)c1nc(Cl)c(Cl)c(NCc2ccccc2[N+](=O)[O-])c1Br [Compound 15-41, 3-bromo-5,6-dichloro-4-[(2-nitrophenyl-methyl)-amino]-pyridine-2-carboxylic acid methyl ester] | 20 | 100 | 40 | 100 | 30 | 80 | 10 | 100 | 0 | 80 | 70 | 100
